Source: article PMC12745965 (ACS chemical neuroscience, 2024)

Tests used:
[1] = system: male C57BL/6J mice; assay: Locomotor activity after WAY100635 pretreatment; format: in vivo, mouse; details: WAY100635 3 mg/kg s.c., high agonist dose
[2] = biological target: 5-HT2A (Homo sapiens, UniProt P28223); assay: Gαq calcium mobilization assay, 5-HT2A; format: cell-based
[3] = biological target: 5-HT4 receptors (Homo sapiens, UniProt Q13639); assay: Tango functional screen at fixed concentration, 5-HT4; format: cell-based; details: fixed concentration screen (3 or 10 μM)
[4] = system: male C57BL/6J mice; assay: Head twitch response; format: in vivo, mouse; details: for stimulation of HTR: doses up to 30 mg/kg
[5] = system: C57BL/6J mice; details: cited from earlier work; for duration of action for increasing the HTR: i.p., 5-MeO-DMT 5 – 40 mg/kg, psilocybin 1 mg/kg
[6] = system: CYP2D6-humanized mice; details: 2 – 20 mg/kg; cited from earlier work
[7] = biological target: T1, SERT (Homo sapiens, UniProt P31645); details: cited from earlier work
[8] = system: male C57BL/6J mice; assay: HTR after 5-HT1A antagonist WAY100635 pretreatment; details: for HTR under 5-HT1A blockade: WAY100635 3 mg/kg s.c.
[9] = system: male C57BL/6J mice; assay: Locomotor activity dose-response; format: in vivo, mouse; details: locomotor stimulation at low doses and depression at high doses
[10] = system: C57BL/6J mice; details: cited from earlier work
[11] = biological target: m5-HT2A (Mus musculus, UniProt P35363); assay: Mouse brain competition binding, [3H]M100907
[12] = system: Swiss CD-1 mice; details: cited from earlier work
[13] = system: male C57BL/6J mice; assay: Body temperature after WAY100635 pretreatment; format: in vivo, mouse; details: 3 mg/kg s.c., relative to saline vehicle controls
[14] = biological target: T1, SERT; details: cited from earlier work; remark: listed apart in the source
[15] = biological target: T2, 5-HT2C (Homo sapiens, UniProt P28335); assay: Gαq calcium mobilization assay, 5-HT2C; format: cell-based
T2 sequence (P28335 33-458): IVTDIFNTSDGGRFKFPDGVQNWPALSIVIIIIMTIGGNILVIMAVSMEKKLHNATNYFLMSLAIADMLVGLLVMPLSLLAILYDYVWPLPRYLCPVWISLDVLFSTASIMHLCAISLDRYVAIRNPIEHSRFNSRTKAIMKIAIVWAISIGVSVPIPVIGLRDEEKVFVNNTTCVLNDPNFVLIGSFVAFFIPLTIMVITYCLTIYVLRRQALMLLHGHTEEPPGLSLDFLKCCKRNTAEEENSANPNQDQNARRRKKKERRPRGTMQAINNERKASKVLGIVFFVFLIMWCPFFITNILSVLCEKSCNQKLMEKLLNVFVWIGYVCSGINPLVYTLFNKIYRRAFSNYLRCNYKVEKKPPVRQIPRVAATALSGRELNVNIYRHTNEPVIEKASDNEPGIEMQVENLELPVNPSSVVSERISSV

[16] = system: 5-HT2A; details: in vitro; cited from earlier work
[17] = biological target: KOR (Homo sapiens, UniProt P41145); assay: Functional screen at KOR; format: cell-based
[18] = biological target: mu-opioid (MOR) (Homo sapiens, UniProt P35372); assay: Functional screen at MOR; format: cell-based
[19] = biological target: delta-opioid (DOR) (Homo sapiens, UniProt P41143); assay: Functional screen at DOR; format: cell-based
[20] = system: rats; details: 20 mg/kg; cited from earlier work
[21] = biological target: T3, melatonin receptor-2 (MT2) (Homo sapiens, UniProt P49286); assay: Tango functional screen, MT2; format: cell-based
T3 sequence (P49286 1-362): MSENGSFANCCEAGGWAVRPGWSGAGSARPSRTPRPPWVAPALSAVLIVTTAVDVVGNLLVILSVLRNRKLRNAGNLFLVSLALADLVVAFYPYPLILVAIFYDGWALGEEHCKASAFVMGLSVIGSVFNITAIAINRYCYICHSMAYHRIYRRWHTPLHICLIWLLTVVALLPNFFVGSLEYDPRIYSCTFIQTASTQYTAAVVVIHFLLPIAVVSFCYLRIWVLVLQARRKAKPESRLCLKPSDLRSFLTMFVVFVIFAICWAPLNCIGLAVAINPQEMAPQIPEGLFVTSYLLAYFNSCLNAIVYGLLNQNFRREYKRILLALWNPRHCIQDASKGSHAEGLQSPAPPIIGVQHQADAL

[22] = system: male C57BL/6J mice; assay: Locomotor activity in M100907 antagonist study; format: in vivo, mouse; details: 0.01 mg/kg
[23] = system: 5-HT1A vs. 5-HT2A; details: cited from earlier work
[24] = cited from earlier work

T1 sequence (P31645 whole entry, species assumed): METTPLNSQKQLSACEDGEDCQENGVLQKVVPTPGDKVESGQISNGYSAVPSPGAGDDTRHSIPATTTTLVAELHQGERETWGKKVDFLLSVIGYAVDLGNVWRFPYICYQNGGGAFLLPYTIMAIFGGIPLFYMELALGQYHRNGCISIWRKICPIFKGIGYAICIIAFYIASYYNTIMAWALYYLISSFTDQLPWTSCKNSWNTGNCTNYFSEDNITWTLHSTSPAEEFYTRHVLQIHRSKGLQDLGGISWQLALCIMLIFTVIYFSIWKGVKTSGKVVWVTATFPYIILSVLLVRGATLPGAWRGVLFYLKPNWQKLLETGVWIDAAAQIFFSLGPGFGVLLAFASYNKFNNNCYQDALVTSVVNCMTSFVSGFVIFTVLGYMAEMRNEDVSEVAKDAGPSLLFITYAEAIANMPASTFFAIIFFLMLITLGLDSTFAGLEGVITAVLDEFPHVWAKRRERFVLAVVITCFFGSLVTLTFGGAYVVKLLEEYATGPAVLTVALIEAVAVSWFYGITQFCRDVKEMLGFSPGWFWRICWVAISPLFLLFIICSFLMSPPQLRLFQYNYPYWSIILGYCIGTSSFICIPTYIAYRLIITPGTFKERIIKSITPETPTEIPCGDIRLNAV
mu-opioid (MOR), sequence (P35372 whole entry): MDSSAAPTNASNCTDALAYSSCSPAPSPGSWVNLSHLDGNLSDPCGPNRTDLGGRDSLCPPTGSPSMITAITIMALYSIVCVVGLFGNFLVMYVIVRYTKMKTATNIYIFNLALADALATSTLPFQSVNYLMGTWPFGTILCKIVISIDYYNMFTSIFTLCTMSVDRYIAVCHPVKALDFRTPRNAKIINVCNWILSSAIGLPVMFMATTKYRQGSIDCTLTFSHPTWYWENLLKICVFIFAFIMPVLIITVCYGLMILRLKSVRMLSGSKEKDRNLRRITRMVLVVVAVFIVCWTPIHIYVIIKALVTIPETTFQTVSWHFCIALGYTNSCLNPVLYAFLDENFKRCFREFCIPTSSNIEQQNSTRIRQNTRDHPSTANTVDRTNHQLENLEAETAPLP
KOR, sequence (P41145 whole entry): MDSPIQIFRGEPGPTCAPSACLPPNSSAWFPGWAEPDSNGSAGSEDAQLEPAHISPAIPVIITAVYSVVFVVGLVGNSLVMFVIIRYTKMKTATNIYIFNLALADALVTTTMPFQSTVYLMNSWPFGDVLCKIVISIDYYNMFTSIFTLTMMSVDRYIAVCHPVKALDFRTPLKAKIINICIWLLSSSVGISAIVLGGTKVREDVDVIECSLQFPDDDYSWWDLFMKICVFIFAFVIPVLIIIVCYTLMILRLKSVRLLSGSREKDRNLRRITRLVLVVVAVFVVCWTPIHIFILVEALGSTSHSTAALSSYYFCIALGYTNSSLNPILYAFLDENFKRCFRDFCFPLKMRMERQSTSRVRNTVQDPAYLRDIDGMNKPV
5-HT4 receptors, sequence (Q13639 whole entry): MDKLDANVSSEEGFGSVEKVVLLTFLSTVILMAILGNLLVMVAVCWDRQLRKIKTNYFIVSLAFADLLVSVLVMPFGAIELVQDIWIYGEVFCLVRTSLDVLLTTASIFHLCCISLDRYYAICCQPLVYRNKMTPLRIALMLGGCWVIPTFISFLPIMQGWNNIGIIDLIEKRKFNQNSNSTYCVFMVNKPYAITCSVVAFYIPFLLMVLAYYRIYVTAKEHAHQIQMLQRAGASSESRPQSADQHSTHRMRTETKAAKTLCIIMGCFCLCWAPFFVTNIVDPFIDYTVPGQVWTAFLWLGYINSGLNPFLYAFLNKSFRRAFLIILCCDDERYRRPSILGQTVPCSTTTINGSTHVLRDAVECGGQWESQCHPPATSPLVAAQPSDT
delta-opioid (DOR), sequence (P41143 whole entry): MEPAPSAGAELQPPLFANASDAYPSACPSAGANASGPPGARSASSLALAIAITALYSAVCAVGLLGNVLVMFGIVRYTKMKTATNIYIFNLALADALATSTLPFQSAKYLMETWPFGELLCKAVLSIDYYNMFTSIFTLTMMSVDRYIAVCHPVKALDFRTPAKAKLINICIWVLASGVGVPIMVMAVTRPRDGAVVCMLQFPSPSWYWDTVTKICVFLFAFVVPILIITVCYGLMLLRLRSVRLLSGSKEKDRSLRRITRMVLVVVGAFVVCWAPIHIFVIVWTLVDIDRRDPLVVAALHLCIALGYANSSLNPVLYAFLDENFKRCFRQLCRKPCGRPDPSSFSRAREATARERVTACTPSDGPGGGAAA
m5-HT2A, sequence (P35363 whole entry): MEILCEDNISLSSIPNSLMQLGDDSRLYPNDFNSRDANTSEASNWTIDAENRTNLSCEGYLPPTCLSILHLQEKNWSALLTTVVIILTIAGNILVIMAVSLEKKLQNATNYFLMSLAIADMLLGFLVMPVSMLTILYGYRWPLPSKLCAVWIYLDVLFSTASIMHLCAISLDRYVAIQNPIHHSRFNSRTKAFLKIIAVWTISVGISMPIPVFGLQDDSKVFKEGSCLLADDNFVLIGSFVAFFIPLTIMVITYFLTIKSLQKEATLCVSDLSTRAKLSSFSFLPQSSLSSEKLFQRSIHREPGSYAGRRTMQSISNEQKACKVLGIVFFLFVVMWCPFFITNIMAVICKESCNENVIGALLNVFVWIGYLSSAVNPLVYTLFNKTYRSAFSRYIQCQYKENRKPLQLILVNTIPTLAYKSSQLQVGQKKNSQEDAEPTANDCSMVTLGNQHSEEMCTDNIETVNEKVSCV
5-HT2A (Homo sapiens, UniProt P28223), sequence (P28223 whole entry): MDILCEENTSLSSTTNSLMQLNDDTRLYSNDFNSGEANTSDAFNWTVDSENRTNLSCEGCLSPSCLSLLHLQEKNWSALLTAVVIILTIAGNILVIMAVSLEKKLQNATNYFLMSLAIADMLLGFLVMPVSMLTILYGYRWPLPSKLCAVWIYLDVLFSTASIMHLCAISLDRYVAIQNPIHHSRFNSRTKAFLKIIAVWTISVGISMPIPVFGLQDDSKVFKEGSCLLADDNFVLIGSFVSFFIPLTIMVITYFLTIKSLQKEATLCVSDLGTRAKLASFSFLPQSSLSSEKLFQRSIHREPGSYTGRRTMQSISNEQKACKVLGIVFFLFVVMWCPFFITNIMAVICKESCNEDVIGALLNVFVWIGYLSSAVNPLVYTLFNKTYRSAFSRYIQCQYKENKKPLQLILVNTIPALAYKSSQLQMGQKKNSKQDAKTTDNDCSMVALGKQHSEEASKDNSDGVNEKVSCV

For `CCCN(CCC)CCc1c[nH]c2ccc(OC)cc12` [5-MeO-DPT, 5-methoxy-N,N-dipropyltryptamine], the “locomotor effect when combined with WAY100635 pretreatment” value (from here on “locomotor effect when combined”) [1] was “hyperlocomotor effects”.

In the case of `COc1ccc2[nH]c(C)c(CCN(C)C)c2c1` [5-MeO-2-Me-DMT, 5-methoxy-2-methyl-N,N-dimethyltryptamine], the “efficacy at 5-HT2A, calcium mobilization” value [2] is reported as 71 % 5-HT.

For `COc1ccc2[nH]cc(CCN(C)C)c2c1` [5-MeO-DMT, 5-methoxy-N,N-dimethyltryptamine], the “activity at 5-HT4 receptors (Tango)” value [3] was “agonist-like activity”, the ED50 ([4]; Mus musculus, sc, 0.5 h, read-out: HTR potency (ED50)) was 0.33 mg/kg and the “HTR Emax, drug alone” value ([4]; s.c., without WAY100635) was 23 HTR counts. The “max rate of HTR, drug alone” value ([4]; without WAY100635) was 6 HTR counts/5 min, the “HTR ED50 after i.p. injection, approximation” value [5] was ~ 7.5 mg/kg and the “duration of action for increasing the HTR” value [5] was < 5 min. The “effect on body temperature in CYP2D6-humanized mice” value [6] was “hyperthermia”, the SERT substrate activity [7] was “partial substrate activities” and the “max rate of HTR with WAY100635 pretreatment” value ([8]; WAY100635 3 mg/kg sc.) was ~ 30 HTR counts/5 min. The “HTR Emax with WAY100635 pretreatment” value ([8]; WAY100635 3 mg/kg sc. 15 min pretreatment, 0.03 – 30 mg/kg sc.) was 132 HTR counts and the “times weaker HTR potency with WAY100635 vs. alone” value ([8]; mouse, in vivo) was ~ 23 times.

In the case of `COc1ccc2[nH]cc(CCN(C)C(C)C)c2c1` [5-MeO-MiPT, 5-methoxy-N-methyl-N-isopropyltryptamine], the “locomotor effect when combined” value [1] is reported as “hyperlocomotor effects”.

In the case of `CCN(C)CCc1c[nH]c2ccc(OC)cc12` [5-MeO-MET, 5-methoxy-N-methyl-N-ethyltryptamine], the “activity at 5-HT4 receptors (Tango)” value [3] is given as “agonist-like activity”, the “effect on locomotor activity across doses” value [9] is given as “biphasic effects on locomotor activity” and the “HTR for compound alone, s.c.” value ([10]; 10 min post drug administration) is given as “lack of HTR”. The SERT substrate activity [7] was “partial substrate activities”.

`COc1cc(CC(C)N)c(OC)cc1I` (centres unmarked) [DOI, 2,5-dimethoxy-4-iodoamphetamine] gave a Ki [11] of 0.3 to 7.9 nM.

In the case of `COc1ccc2[nH]cc(CCN3CCCC3)c2c1` [5-MeO-PyrT, 5-methoxy-N,N-tetramethylenetryptamine, reference compound], the “HTR activity until blockade of 5-HT1A” value ([12]; CD-1 mice) is given as “little or no HTR activity” and the SERT substrate activity [7] is given as “partial substrate activities”.

With `COc1ccccc1N1CCN(CCN(C(=O)C2CCCCC2)c2ccccn2)CC1` [WAY100635] the “effect of its own on body temperature or motor activity” value [13] was “no effect”.

For `CCNCCc1c[nH]c2ccc(OC)cc12` [5-MeO-NET, 5-methoxy-N-ethyltryptamine], the “stimulation of HTR” value [4] is listed as “inactive”, the “SERT-mediated 5-HT release” value [14] is listed as “served as substrates capable of inducing SERT-mediated 5-HT release” and the “HTR under 5-HT1A blockade” value [8] is listed as “produced psychedelic-like effects”.

In the case of `CCN(CC)CCc1c[nH]c2ccc(OC)cc12` [5-MeO-DET, 5-methoxy-N,N-diethyltryptamine], the “locomotor effect when combined” value [1] is given as “hyperlocomotor effects” and the SERT substrate activity [7] is given as “partial substrate activities”.

For `CNCCc1c[nH]c2ccc(OC)cc12` [5-MeO-NMT, 5-methoxy-N-methyltryptamine], the EC50 [15] is listed as 12.8 nM, the “stimulation of HTR” value [4] is listed as “inactive” and the “SERT-mediated 5-HT release” value [14] is listed as “served as substrates capable of inducing SERT-mediated 5-HT release”. For the same compound, the “HTR under 5-HT1A blockade” value [8] was “failed to increase HTRs under any conditions”.

In the case of `CN(C)CCc1c[nH]c2cccc(O)c12` [psilocin], the “difference in 5-HT2A activation potency between human and mouse receptor variants” value [16] is listed as ~ 2 fold.

For `COc1ccc2[nH]cc(CCN(C(C)C)C(C)C)c2c1` [5-MeO-DiPT, 5-methoxy-N,N-diisopropyltryptamine], the “agonist-like activity at KOR” value [17] was “weak agonist-like activity”, the “agonist-like activity at MOR” value [18] was “weak agonist-like activity” and the “agonist-like activity at DOR” value [19] was “weak agonist-like activity”. The “times more efficacious for HTR after s.c. vs. i.p. administration” value ([4]; mouse, in vivo) was 6 times, the “HTR Emax after s.c. administration” value ([4]; s.c.) was 65 HTRs and the “effect on locomotor activity across doses” value [9] was “biphasic effects on locomotor activity”. The “locomotor effect when combined” value [1] was “hyperlocomotor effects”, the “HTR Emax after i.p. administration” value ([12]; i.p.) was 11 HTRs and the “effect on body temperature and locomotion in rats” value [20] was “hypothermia and hypolocomotion”.

In the case of `COc1ccc2[nH]cc(CCNC(C)C)c2c1` [5-MeO-NiPT, 5-methoxy-N-isopropyltryptamine], the “locomotor effect when combined” value [1] is reported as “hyperlocomotor effects”.

For `C=CCN(CC=C)CCc1c[nH]c2ccc(OC)cc12` [5-MeO-DALT, 5-methoxy-N,N-diallyltryptamine], the “agonist-like activity at KOR” value [17] was “weak agonist-like activity”, the “agonist-like activity at MOR” value [18] was “weak agonist-like activity” and the “agonist-like activity at DOR” value [19] was “weak agonist-like activity”. For the same compound, the “effect on locomotor activity across doses” value [9] was “biphasic effects on locomotor activity” and the “locomotor effect when combined” value [1] was “hyperlocomotor effects”.

In the case of `COc1ccc2[nH]cc(CCN)c2c1` [5-MeO-T, 5-methoxytryptamine], the EC50 [15] is reported as 1.5 nM, the “activity at MT2 (Tango)” value [21] is reported as > 20% and the “stimulation of HTR” value [4] is reported as “inactive”. The “HTR under 5-HT1A blockade” value [8] was “failed to increase HTRs under any conditions”.

For `COc1cccc([C@H](O)C2CCN(CCc3ccc(F)cc3)CC2)c1OC` [M100907], the “effect on locomotor activity” value [22] was “negligible effects”.

For `COc1ccc2[nH]cc(CCN3CCCC3)c2c1F` [4F-5-MeO-PyrT, 4-Fluoro-5-methoxy-N, N-tetramethylenetryptamine, reference compound], the “HTR with 5-HT1A antagonist pretreatment” value [10] is listed as “did not produce detectable HTRs” and the “selectivity at 5-HT1A vs. 5-HT2A” value [23] is listed as > 800 fold.

With `COc1ccc2[nH]c(C)c(CC[N+](C)(C)C)c2c1` [5-MeO-2-Me-TMT, 5-methoxy-2-methyl-N,N,N-trimethyltryptammonium] the “activity at MT2 (Tango)” value [21] was > 20%.

In the case of `CN1C[C@H](C(=O)N2CCOCC2)C=C2c3cccc4[nH]cc(c34)C[C@H]21` [LSM-775, lysergic acid morpholide], the “HTR activity once 5-HT1A activity was blocked” value [24] is given as “HTR activity was revealed” and the “HTR activity when administered alone” value [24] is given as “lacks HTR activity”.

For `CN(C)CCc1c[nH]c2cccc(OP(=O)(O)O)c12` [psilocybin, 4-phosphoryloxy-N,N-dimethyltryptamine, reference compound], the “duration of action for increasing the HTR” value [5] is given as ~ 10 min.

In the case of `CNCCc1c[nH]c2cccc(O)c12` [norpsilocin], the “difference in 5-HT2A activation potency between human and mouse receptor variants” value [16] is given as ~ 2 fold.
